pEC50: −log10 of the molar value. Like-named read-outs stand apart in the source and are kept apart here.

Four compounds from patent US9321809B2, “Macrocyclic compounds for suppressing replication of hepatitis C virus” (Ginkgo Pharma Co., Ltd., priority 2012, dated 2016) can be followed below.

The subject of data set [1] is HCV replicon-containing huh-7 cells (replicon 1b). Briefly: HCV Replicon Assay (luciferase readout). It is filed as cell-based. The following applies: Hepatitis C virus; HCV replicon 1b in huh-7 cells, 48 h incubation, 1% DMSO, luciferase signal; read-out: EC50 (EC 50 on replicon 1b). How it is done:
Compounds of formuala (I) are tested for the ability to inhibit viral replication of the Hepatitis C viruses by the following in vitro assays.
DMEM (Life Technologies #41965-039) was supplemented with 10% FBS, 2 mM L-glutamine (Life Technologies #25030-024), penicillin (100 units/ml)/streptomycin (100 micrograms/ml) (Life Technologies #15140-114), 1× non-essential amino acids (Life Technologies #11140-035).
Complete media was prepared by mixing FBS, DMEM media with Geneticin (G418). The compete media was preincubated at 37° C. in a CO2 incubator. Then, HCV replicon-containing huh-7 cells (V. Lohmann et. al. Science, 285, (1999)110-113) was taken out from 37° C. incubator. The residual medium was absorbed, and the cells were washed with PBS. After washing fluid was removed, 1 ml 0.25% trypsin/0.02% EDTA solution. The cells were washed by the above trypsin/EDTA solution to make sure that each cell was cleaned. After the trypsin/EDTA solution was absorbed, the mixture was incubated at 37° C. in a CO2 incubator for 3-5 minutes. Morphological changes were observed by inverted microscope, till the cells were detached from the wall of container completely.
3 ml of complete media was added to make the cells to suspend. The cells are counted with hematometer. Appropriate volumes of the complete media was added to adjust the cell density to 100,000/ml. Cells were plated with 100 μl of suspension at 10,000/well of 96 well plate. Plates were placed into 37° C. 5% CO2 incubator for 24 h.
Preparation of Drug Solution:
Drugs were diluted under aseptic conditions.
Stock solutions may be prepared before the assay, which means that the test compounds are dissolved in 100% DMSO to afford a final concentration of 2 mM. Before the 96 well culture was completed, the stock solution was diluted with culter media to 100 fold of the final concentration (100× solution).
96-well plates were taken out from 37° C. CO2 incubator and morphological changes were observed by inverted microscope. In a ventilator, 1 μl of 100× drug solution was added to wells of 96 well plate until the final concentration of DMSO in the mixture is 1%. The plates were incubated at 37° C. in a CO2 environment for 48 h. 30 μl of Stead-G1® Luciferase Assay System (bought from Promega) was added to each well of 96 well plates and each plate is shaken in a plate shaker for 5 minutes to ensure cells cleavaged completely. The fluorescence signal was quantitated in a Perkin-Elmer plate reader (Envision) and integral time was setted to be 2 second. The following data were achieved after recording and analyzing the data.
(In general: A replicon is a self-replicating genome or part of one, used to study replication in cells.)

The nature of data set [2]: liver microsome metabolity assay (PK Assays). The data set is classed as in vitro ADME, human. The following applies: pH 7.4. How it is done: The following liver microsome metabolity assays validated the PK properties of compounds of Formula (I). 1. Buffer A: 1.0 L 0.1 M potassium phosphate monobasic buffer (including 1.0 mM EDTA); Buffer B: 1.0 L 0.1 M dipotassium phosphate buffer (including 1.0 mM EDTA); Buffer C: 0.1 M potassium phosphate buffer (including 1.0 mM EDTA), pH 7.4, add Buffer A to 700 ml of Buffer B until pH is 7.4. 2. Drug solution: 500 μM solution: a 10 μL (10 mM) DMSO was added to 190 μL ACN; 1.5 μM solution (dissolved in human microsome and the final concentration of microsome is 0.75 mg/mL): 1.5 μL (500 μM) of drug solution and 18.75 μL of human microsome (20 mg/mL) were added to 479.75 uL of Buffer C. 3. NADPH solution (6 mM, dissolved in Buffer C). 4. 30 µL of drug solution (1.5 μM) was added to a 96-well plate, setting locations for different time points; Preincubated for 10 minutes at 37° C. 5. […] of NADPH (6 mM) was added to the location for 45-min time point; and timing started. 6. At 30, 15 and 5 min, […] of NADPH (6 mM) was added to each corresponding locations, respectively. 7. After the reaction was completed mins), 135 μL acetonitrile was added to the locations for all different time points; 15 µL of NADPH (6 mM) was added to the location for 0 min time point. 8. Centrifugated at 3220 g for 10 min. 9. 50 μL of supernatant was collected and mixed with 50 μL, of ultrapure water. Samples were sent to LC/MS for analysis.
In general terms: Microsomes from liver hold many membrane-bound enzymes, among them those of drug oxidation.

The term pEC50 denotes the negative decadic logarithm of the EC50, by convention in mol/L. With `C=C[C@@H]1C[C@]1(NC(=O)[C@@H]1C[C@@H]2CN1C(=O)[C@H](C1CCCCC1)NC(=O)[C@@H](NC(=O)OC(C)(C)C)COC/C=C/c1cccc3c1CN(C3)C(=O)O2)C(=O)NS(=O)(=O)C1CC1` [Compound IIa-16, tert-butyl N-[(1R,12E,17S,20S,23S)-20-cyclohexyl-23-{[(1R,2S)-1-[(cyclopropanesulfonyl)carbamoyl]-2-ethenylcyclopropyl]carbamoyl}-3,18,21-trioxo-2,15-dioxa-4,19,22-triazatetracyclo[20.2.1.1^4,7.0^6,11]hexacosa-6,8,10,12-tetraen-17-yl]carbamate], the pEC50 in data set [1] was over 8.00. In addition, the half-life at 1 µM in data set [2] (human, microsomes) stood at 193 min.

For `C=C[C@@H]1C[C@]1(NC(=O)[C@@H]1C[C@@H]2CN1C(=O)[C@H](C1CCCCC1)NC(=O)[C@@H](NC(=O)OC(C)(C)C)COC/C=C/c1cc3c(nccc3cc1OC)O2)C(=O)NS(=O)(=O)C1CC1` [Compound IIb-3, tert-butyl N-[(3R,5S,8S,11S,15E)-8-cyclohexyl-5-{[(1R,2S)-1-[(cyclopropanesulfonyl)carbamoyl]-2-ethenylcyclopropyl]carbamoyl}-18-methoxy-7,10-dioxo-2,13-dioxa-6,9,23-triazatetracyclo[15.6.2.1^3,6.0^20,24]hexacosa-1(23),15,17(25),18,20(24),21-hexaen-11-yl]carbamate], the pEC50 in data set [1] is over 8.00. For the same compound, the half-life at 1 µM in data set [2] (human, microsomes) turned out to be 230 min.

As for `C=C[C@@H]1C[C@]1(NC(=O)[C@@H]1C[C@@H]2CN1C(=O)[C@H](C(C)(C)C)NC(=O)[C@@H](NC(=O)OC(C)(C)C)COC/C=C/c1cccc3c1CN(C3)C(=O)O2)C(=O)NS(=O)(=O)C1CC1` [Compound IIa-1, tert-butyl N-[(1R,12E,17S,20S,23S)-20-tert-butyl-23-{[(1R,2S)-1-[(cyclopropanesulfonyl)carbamoyl]-2-ethenylcyclopropyl]carbamoyl}-3,18,21-trioxo-2,15-dioxa-4,19,22-triazatetracyclo[20.2.1.1^4,7.0^6,11]hexacosa-6,8,10,12-tetraen-17-yl]carbamate], the pEC50 in data set [1] is over 8.00. Moreover, in data set [2] (human, microsomes), the half-life at 1 µM stood at 198 min.

As for `CC[C@@H]1C[C@]1(NC(=O)[C@@H]1C[C@@H]2CN1C(=O)[C@H](C(C)(C)C)NC(=O)OCC(C)(C)CCCCc1cccc3c1CN(C3)C(=O)O2)C(=O)NS(=O)(=O)C1CC1` [MK7009, reference compound], the pEC50 in data set [1] is over 8.00. The half-life at 1 µM in data set [2] (human liver microsomes, human microsome 0.75 mg/mL, 1.5 μM drug solution, NADPH, 37° C., time points 0-45 min, LC/MS, read-out: t1/2) was 26 min.
